Assays:
Type in all cases: cell-based
[1] = test system: U937-PKR+ cells; assay: Interferon induction in U937-PKR+ cells (IFN assay of culture supernatants)
Procedure: (§1) FIG. 2. Interferon induction in U937-PKR+ cells and control U937-neo cells. U937-PKR+ cells and U937-neo cells (0.5×10^6/ml) were cultured in RPMI 1640 medium, supplemented with 5% fetal bovine serum. The cells were pretreated (“primed”) with or without 10 nM PMA for 20 hrs followed by induction with 10 μg/ml poly r(I):poly r(C) or with 0.1 TCID50/cell EMCV for 20 hrs. Twenty-four hours after induction, culture supernatants were collected and assayed for IFN-α. The open bars indicate U937-neo cells, the hatched bars indicate U937-PKR+ cells. The experimental groups indicate different treatments: 1-no treatment; 2-poly r(I):poly r(C) induction alone; 3-EMCV induction alone; 4-PMA priming alone; 5-PMA priming and poly r(I):poly r(C) induction; 6-PMA priming and EMCV induction.
(§2) The levels of IFN-α in the preparations can be determined by titrating for antiviral activity on L929 (murine fibroblast) cells against National Institute of Allergy and Infectious Diseases reference standard G-023-901-527 (Lau et al. J. Clin. Invest. 82:1415-1421 1988). In this technique, 5×10^4 L929 cells are seeded into each well of 96-well microtiter plates and then incubated with two-fold serial dilutions of culture supernatants for 16 hr. The cells are subsequently challenged with EMCV or Sendai virus (0.1 or 0.01 TCID per cell). Virus-induced cytopathic effects were assessed by microscopic examination and by staining cells with 0.1% crystal violet in 5% ethanol solutions. The IFN titer is defined as the reciprocal of the highest dilution of culture supernatants capable of protecting 50% of the cells from viral-induced cytopathic effects.
U937-PKR+ cells and U937-neo cells were cultured in RPMI 1640 medium, supplemented with fetal bovine serum. The cells were pretreated with or without phorbol myristate acetate (PMA) (10 nM) for 20 hr and with or without subsequent stimulation by poly r(I):r(C), 10 ug/ml, for 20 hr. Twenty-four hr after the stimulation with poly r(I):r(C), culture supernatants were collected for IFN assays.

[2] = test system: U937-neo cells; assay: Interferon induction in control U937-neo cells (IFN assay of culture supernatants); details: inducer 10 μg/ml for 20 hr, either with or without 10 nM PMA priming
Procedure: as §1
as §2, with “The cells are subsequently challenged with EMCV or Sendai virus (0.1 or 0.01 TCID per cell).” left out, “The IFN titer is defined as the reciprocal of the highest dilution of culture supernatants capable of protecting 50% of the cells from viral-induced cytopathic effects.” left out

[3] = test system: U937-PKR+ cells; assay: Trypan blue exclusion viability assay following induction
From the text: Following induction by poly r(I):poly r(C), the U937-PKR+ cells were examined for viability using a trypan blue exclusion assay. […] Thus, the U937-PKR+ cells can be recycled for continuous production of IFN.

For poly r(I):poly r(C), the IFN production ([1]; inducer 10 μg/ml for 20 hr, with or without 10 nM PMA priming) was “increased IFN production”, the IFN level ([1]; with 10 nM PMA priming 20 hr, then induction) was 4000 U/ml and the IFN-α synthesis [2] was “minimal synthesis of IFN-α”. The viable cells [3] was “more than 95%”.
In the case of `CCCCCCCCCCCCCC(=O)O[C@@H]1[C@@H](C)[C@@]2(O)[C@@H](C=C(CO)C[C@]3(O)C(=O)C(C)=C[C@@H]23)[C@@H]2C(C)(C)[C@]12OC(C)=O` [PMA, phorbol myristate acetate], the IFN production ([1]; PMA priming alone, no EMCV or poly r(I):poly r(C) inducer, compared with U937-neo cells) is reported as “higher levels of IFNs than did U937-neo cells”.
